Measurements published in patent publication US8999937B2, “Glucocorticoid induced leucine zipper mimetics as therapeutic agents in multiple sclerosis” (Indiana University Research and Technology Corporation, priority 2011, dated 2015).
Entries after “also recorded” stand apart in the source; their conditions may differ.

Experiments:
R-EAE in SJL/J mice = assay: Relapsing remitting EAE (R-EAE) in SJL/J mice, clinical score; format: in vivo, mouse
Method: Relapsing remitting EAE is induced in 8-10-week old female SJL/J mice. The mice were immunized with 100 μg of PLP139-151 in PBS emulsified 1:1 in complete Freund's adjuvant supplemented with 200 μg of Mycobacterium tuberculosis H37RA (Difco Laboratories, Detroit, Mich.) distributed over four sites on the lateral hind flanks subcutaneously. Mice were injected with 100 ng of pertussis toxin (List Biological Laboratories, Campbell, Calif.) intraperitonealy on the day of immunization and 2 days later (Srinivasan et al., (2002) J Immunol, 169(4):2180-8).
As opposed to the B10.PL mice which often develop monophasic EAE, PLP139-151 immunized SJL/J mice develop relapsing remitting form of EAE (R-EAE) (Dudhgaonkar et al. (2009) J Immunol, 183(11):7505-13). Groups of SJL/J mice were induced EAE as described above. Animals were observed daily for clinical signs and scored as follows: 0, no clinical signs; 1, limp tail or waddling gait with tail tonicity; 2, waddling gait with limp tail (ataxia); 2.5, ataxia with partial paralysis of one limb; 3, partial hind-limb paralysis; 3.5, full paralysis of one limb with partial paralysis of the second limb; 4, full paralysis of two limbs; 4.5 moribund; and 5, death (1, 8). […] A group of mice received the GILZ peptide:Pep-1 complex on day 12 post-immunization. Groups of mice treated with PBS (vehicle) or Pep-1 alone were included as control.
A group of mice received the GILZ-P•Pep-1 complex 12 days post-immunization. rh-GILZ was used to evaluate the effect in R-EAE.

[1] = system: CD4+ LNC from PLP primed SJL/J mice; assay: In vitro cytokine secretion (ELISA) by PLP139-151 restimulated CD4+ cells from primed SJL/J mice; format: cell-based, mouse; details: for IFN-γ secretion / IL-10 secretion / IL-12 secretion / IL-17 secretion: CD4+ LNC, PLP restimulated, 48 h; for IFN-γ secretion / IL-10 secretion / IL-12 secretion: vs untreated/control peptide; for IL-17 secretion: vs untreated/control-P; for cytokine secretion (INF-γ and IL-12p40) by in-vivo primed T cells: CD4+ splenocytes, PLP 40 μg/ml, 24 hrs, FIG. 5
Method: CD4+ splenocytes isolated 10 days post-immunization from SJL mice induced EAE were co-cultured with irradiated syngenic APC and restimulated with PLP (40 μg/ml) in the presence of complex of chariot peptide with rGILZ protein/dexamethasone/GILZ-P at indicated concentrations. Supernatants collected after 24 hrs were assessed for INF-γ and IL-12p40 by ELISA. *=p<0.05 when compared to cells +PLP.
Supernatants from separate CD4+LNC cultured similarly collected at 24 hrs and 48 hrs were stored at −20° C. The levels of cytokines, IL-10, IL-12, and interferon gamma (IFN-γ) were determined by ELISA, using OptEIA kits, according to the manufacturer's recommendations (BD PharMingen). Group comparisons were made by one way analysis of variance (ANOVA) followed by Tukey's post-hoc.
(§1) Supernatants collected at 24 and 48 h were assessed for specific cytokines using the OptEIA kits (BD Biosciences). Proliferation assays included parallel cultures for 72 h with a final 18-h pulse with [^3H]thymidine measured by liquid scintillation counting (Microbeta, Turku, Finland).

p65ΔC14 = molecular target: T1, p65ΔC14 (Homo sapiens, UniProt Q04206); assay: GILZ binding ELISA with partial length p65; details: detected with anti-p65 mAb
T1 construct: purchased Active Motif, Carlsbad, Calif
Method: Binding of the plate-bound r-p65 with cytoplasmic GILZ and the plate-bound GILZ with nuclear p65 was detected with anti-GILZ mAb or anti-p65 mAb, respectively, followed by trinitrobenzene substrate. […] Absorbance at 650 nm was measured between 0 and 300 s with a mixing time of 0.30 s and a 5-s interval between readings.

[2] = system: CD4+ LNC from PLP primed SJL/J mice; assay: In vitro proliferation ([3H]-thymidine) of PLP139-151 restimulated CD4+ LNC from primed SJL/J mice; format: cell-based, mouse; details: for proliferative response, in words: vs PLP139-151 alone or vs r-GILZ
Method: CD4+ lymph node cells (LNC) isolated from the draining lymph nodes harvested from SJL/J mice 10 days after immunization with PLP139-151 were cultured in 96-well plates at […] in complete RPMI and restimulated with the PLP peptide (40 μg/ml) for 72 h, including a final 16-h pulse with [^3H]-thymidine. […] Separate cultures stimulated with ova (40 μg/ml) served as control for antigen specificity. Irradiated splenocytes from syngenic mice were used as antigen presenting cells (APC). Cultures were harvested onto glass fiber mats using a Skatron harvester (Skatron, Sterling, Va.), and the levels of [^3H]-thymidine incorporation were determined by liquid scintillation counting (Microbeta; Wallac, Turku, Finland). Results were confirmed by replicate experiments. Data are expressed as Δcpm (counts/min incorporated in antigen-stimulated culture-counts/min incorporated by control unstimulated culture).
as §1

Circular dichroism = format: physicochemical
Method: CD measurements can be recorded on a JASCO model, J-710 spectropolarimeter, (Jasco Inc, Easton, Md.) as described previously. The samples can be prepared by dissolving lyophilized GILZ peptide or control peptides at 100 μM concentration in citrate buffer (1 mM sodium citrate, 1 mM sodium borate, 1 mM sodium phosphate, 15 mM NaCl) with pH adjusted at 7.0. CD spectra can be collected using a 1 cm path-length quartz cuvette at 50° C. or 90° C. in the 190- to 270-nm wavelength range with a 0.5 nm resolution and a scan rate of 200 nm/min. Reported spectra can represent the unsmoothed averages of 30 scans. Each spectrum can be measured three times with individually prepared solutions. Raw CD signals (in millidegrees) can be converted to mean residue molar ellipticity (θ) in deg cm^2/dmol using the formula [θ] MRW 5 [θ]obs/101cn, where θ obs is the observed ellipticity, 1 is the pathlength in centimeters, c is the molar concentration of peptide, and n is the number of residues in the peptide. To determine 0% PPII helical content CD spectra can be recorded with GILZ-peptide dissolved in 5M CaCl2.

[3] = system: PPD stimulated human CD4+ T cells; assay: Cytokine secretion by PPD-stimulated human CD4+ T cells (ELISA); format: cell-based; details: 24 h, complex with chariot peptide
Method: Purified CD4+ T cells isolated from PBMC by magnetic cell separation (Miltenyi Biotech, Germany), were seeded with irradiated autologous PBMC (T cells depleted) as APC at 1:1.5 ratio in serum-free RPMI (with 5% penicillin/streptomycin), and stimulated with PPD (20 μm/ml) alone or in the presence of dexamethasone (100 μm/ml) or 20:1 M complex of chariot peptide with GILZ protein (0.7 μm/ml)/anti-human GILZ mAb (1 μm/ml)/anti-human p65 mAb (1 μm/ml)/control antibody (1 μm/ml). Supernatants collected at 24 hrs were assessed for cytokines including human IFN-γ, TNF-α, IL-12 p40 and IL-10 using BD OptEIA™ kits. Differences in the secretion of cytokines between the groups were determined by one way ANOVA followed by Tukey's post-hoc analysis (see FIG. 4).

[4] = Example 1, entire period of observation
[5] = Example 1, i.p. on day 0 with Pep-1, peptides 500 μg, r-GILZ 2 ng, n=4/group
[6] = Example 2, single i.p. dose on day 0 with Pep-1, peptides 500 μg, r-GILZ 2 ng, n=9/group

T1 sequence (Q04206 1-537 limits assumed, stated change not applied): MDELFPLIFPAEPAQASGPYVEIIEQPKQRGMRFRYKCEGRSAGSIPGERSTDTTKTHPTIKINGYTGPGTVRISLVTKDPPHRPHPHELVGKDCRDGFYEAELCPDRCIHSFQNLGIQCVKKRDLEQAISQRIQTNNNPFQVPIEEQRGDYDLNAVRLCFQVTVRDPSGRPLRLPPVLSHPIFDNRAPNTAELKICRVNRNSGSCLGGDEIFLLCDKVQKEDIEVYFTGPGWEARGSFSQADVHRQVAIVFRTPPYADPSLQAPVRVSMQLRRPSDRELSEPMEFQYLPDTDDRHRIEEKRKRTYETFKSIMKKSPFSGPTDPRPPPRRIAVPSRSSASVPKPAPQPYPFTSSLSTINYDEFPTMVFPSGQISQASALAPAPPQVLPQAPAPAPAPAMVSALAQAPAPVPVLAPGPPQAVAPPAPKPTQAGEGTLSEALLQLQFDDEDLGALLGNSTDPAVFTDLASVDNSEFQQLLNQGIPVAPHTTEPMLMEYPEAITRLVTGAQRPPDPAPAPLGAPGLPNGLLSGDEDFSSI

| Substance | clinical relapse after initial remission (R-EAE in SJL/J mice; [4]) | mean clinical score (severity of clinical disease) (R-EAE in SJL/J mice; [5]) | clinical relapse after initial remission (R-EAE in SJL/J mice; Example 2) | mean total clinical score (R-EAE in SJL/J mice; [6]) | average clinical score per day, in words (R-EAE in SJL/J mice; Example 2, vs control groups) | IFN-γ secretion [1] | IL-10 secretion [1] | IL-12 secretion [1] | IL-17 secretion [1] | cytokine secretion (INF-γ and IL-12p40) by in-vivo primed T cells [1] | proliferative response, in words [2] | also measured |
| --- | --- | --- | --- | --- | --- | --- | --- | --- | --- | --- | --- | --- |
| Ac-CLSPEEPAPESPQVPEAPGGSAV-NH2 [GILZ-P] | exhibited no relapse | 0.56+/−0.21 | exhibited minimal relapse | 2.25±0.72 | significantly lower | significantly lower | elevated | significantly lower | significantly lower | suppresses | significantly decreased proliferative response | mean clinical score (severity of clinical disease) (R-EAE in SJL/J mice; Example 1, GILZ peptide 500 μg i.p. on day 12 post-induction): 1.78+/−1.01; average clinical score per day, in words (R-EAE in SJL/J mice; Example 1, day 0/day 12 treatment vs control groups, listed as GILZ peptide): significantly reduced scores; average clinical score per day, in words (R-EAE in SJL/J mice; Example 1, day 0/day 12 treatment vs control groups, listed as GILZ-peptide): significantly lower; mean total clinical score (R-EAE in SJL/J mice; Example 2, Pep-1•GILZ-P single dose on day 12): 15.75±4.85; IFN-γ secretion ([1]; listed as GILZ-peptide): significantly decreased; IL-12 secretion ([1]; listed as GILZ-peptide): significantly decreased; absorbance of plate-bound agent probed with p65ΔC14 (p65ΔC14): Absorbance over background was not observed; proliferative response (mean Δcpm), maximum inhibition ([2]; 250 μM GILZ-P with Pep-1): 1404±106 cpm; proliferative response (Δcpm) ([2]; GILZ peptide in the absence of Pep-1): 6663±173 cpm; proliferative response (Δcpm) ([2]; GILZ peptide in the absence of Pep-1, listed as GILZ peptide): 6663+/−173 cpm; proliferative response (Δcpm) ([2]; peptide 500 μM in complex with Pep-1, PLP 40 μg/ml, 72 h): 1702+/−217 cpm; proliferative response, in words ([2]; listed as GILZ peptide): greater inhibition than those treated with r-GILZ at all concentrations; mean residue molar ellipticity θ, maximum at 238 nm (Circular dichroism; 50° C.): 1.12×10^3 deg cm^2 dmol^−1; mean residue molar ellipticity θ, minimum at 200 nm (Circular dichroism; 50° C.): −20.03×10^3 deg·cm^2/dmol; mean residue molar ellipticity θ @ 204 nM (Circular dichroism; 90° C.): −11.37×10^3 deg cm^2/dmol; mean residue ellipticity minimum at 205 nM (Circular dichroism; in 5M CaCl2): −8.84×10^3 deg cm^2/dmol |
| r-GILZ: recombinant glucocorticoid induced leucine zipper protein (Abnova; OriGene with C-terminal DDK) | exhibited no relapse | 0.17+/−0.14 | exhibited minimal relapse | 7.13±2.8 | significantly lower | significantly decreased; also recorded: significantly lower | elevated | significantly decreased; also recorded: significantly lower | significantly lower | suppresses | significantly decreased proliferative response | average clinical score per day, in words (R-EAE in SJL/J mice; Example 1, day 0/day 12 treatment vs control groups): significantly reduced scores; also recorded: significantly lower; IL-10 secretion [3]: significantly elevated; secretion of IFN-γ [3]: significantly reduced; secretion of IL-12 [3]: significantly reduced; proliferative response (Δcpm) ([2]; r-GILZ 200 ng with Pep-1, PLP 40 μg/ml, 72 h): 4658+/−266 cpm |
